Test results published in patent US20200331882A1, “COMPOUND FOR SIMULTANEOUSLY INHIBITING LSD1 AND HDAC TARGETS AND APPLICATION THEREOF” (PEKING UNIVERSITY SHENZHEN GRADUATE SCHOOL, priority 2018, published 2020).

Tests used:
[1] = test system: human breast cancer cell line MDA-MB-231; assay: MTT tumor cell proliferation; assay type: cell-based; settings: 72 h
Excerpt: (§1) MTT colorimetric method was used to detect the inhibitory activity of a series of compounds (i.e. ZZY-001 to ZZY-016, a total of 16 kinds) of the embodiment of the present invention on the proliferation of tumor cells in vitro. The full name of MTT is 3-(4,5-dimethyl-2-thiazolyl)-2,5-diphenyl-2-H-tetrazolium romide, which is a yellow dye also known as thiazolyl blue. […] DMSO can dissolve Formazan deposited in cells and the absorbance value can be measured with a enzyme marker at a wavelength of 490 nm. In a certain range of cell number, the production of Formazan is proportional to the number of cells, so the number of living cells can be inferred according to the measured OD value.
In the experiments of this embodiment, the selected cell lines are human breast cancer cell line MDA-MB-231 and BT-474, human colon adenocarcinoma cell HCT116, mouse colon cancer cell CT26.WT, mouse breast cancer cell 4T1. During the test, the cells in logarithmic phase and in good condition were digested with 0.25% trypsin digestion solution to make the adherent cells fall off, and the cell suspension (suspension cells without trypsin digestion) was made by counting 2-4×10^4 cells/ml. The cell suspension was inoculated on a 96-well plate at 100 μl/well and cultured in a constant temperature CO2 incubator for 24 h. Then the tested drugs were added, 100 μl/well, and cultured for 72 h. MTT was added to a 96-well plate, 20 μl/well, and reacted for 4 h in the incubator. Absorb the supernatant, add DMSO, 150 μl/well and shake for 10 min on the plate shaker. The optical density (OD value) of each well was measured by enzyme marker at the wavelength of 490 nm. […]

HDAC1 = target: T1, HDAC1 (Homo sapiens, UniProt Q13547); assay: In vitro HDAC1 inhibitory activity, FLUOR DE LYS HDAC1 fluorometric assay kit; assay type: biochemical; settings: HDAC1 enzyme activity in vitro
T1 construct: purchased Enzo Biochem Inc
T1 sequence (Q13547 whole entry): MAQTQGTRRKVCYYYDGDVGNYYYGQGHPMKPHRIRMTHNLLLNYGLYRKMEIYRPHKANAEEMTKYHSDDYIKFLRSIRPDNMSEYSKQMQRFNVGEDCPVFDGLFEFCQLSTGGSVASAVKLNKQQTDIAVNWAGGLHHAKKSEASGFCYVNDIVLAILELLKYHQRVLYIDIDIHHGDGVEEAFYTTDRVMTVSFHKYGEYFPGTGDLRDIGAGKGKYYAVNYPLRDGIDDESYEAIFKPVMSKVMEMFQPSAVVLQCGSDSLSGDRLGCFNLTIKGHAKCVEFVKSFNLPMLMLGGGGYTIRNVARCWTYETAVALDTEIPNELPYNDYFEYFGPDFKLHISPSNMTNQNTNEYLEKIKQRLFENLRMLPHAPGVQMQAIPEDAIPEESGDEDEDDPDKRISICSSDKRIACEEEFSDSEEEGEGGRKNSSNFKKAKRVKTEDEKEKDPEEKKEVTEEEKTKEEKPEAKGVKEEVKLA
Excerpt: The principle was shown in the following reaction formula: HDAC1 catalyzes the deacetylation of a substrate FLUOR DE LYS® Substrate (containing an acetylated side chain), the product can react with FLUOR DE LYS® Developer II to generate fluorescence (shown in the following reaction process), and the inhibitory activity of a molecule to be detected on HDAC1 can be indirectly obtained by detecting the fluorescence intensity of the product. In this experiment, 360 nm was selected as the excitation wavelength and 460 nm as the emission wavelength for detection. FLUOR DE LYS® HDAC1 fluorometric drug discovery assay kit required for experiments was purchased from Enzo Biochem Inc.
During the test, the sample was prepared according to the specific experimental conditions of blocking the HDAC1 enzyme activity of the compound of the present invention in vitro in accordance with Table 2 below.

[2] = test system: mouse colon cancer cell CT26.WT; assay: MTT tumor cell proliferation; assay type: cell-based; settings: 72 h
Excerpt: as §1
(§2) The cell suspension was inoculated on a 96-well plate at 100 μl/well and cultured in a constant temperature CO2 incubator for 24 h. Then the tested drugs were added, 100 μl/well, and cultured for 72 h. MTT was added to a 96-well plate, 20 μl/well, and reacted for 4 h in the incubator. Absorb the supernatant, add DMSO, 150 μl/well and shake for 10 min on the plate shaker. The optical density (OD value) of each well was measured by enzyme marker at the wavelength of 490 nm.

[3] = test system: human colon adenocarcinoma cell HCT116; assay: MTT tumor cell proliferation; assay type: cell-based
Excerpt: as §1, §2

[4] = test system: mouse breast cancer cell 4T1; assay: MTT tumor cell proliferation; assay type: cell-based; settings: 72 h
Excerpt: as §1, §2

[5] = test system: human breast cancer cell line BT-474; assay: MTT tumor cell proliferation; assay type: cell-based; settings: 72 h
Excerpt: as §1, §2

[6] = target: T2, recombinant human LSD1 protein (Homo sapiens, UniProt O60341); assay: In vitro LSD1 inhibitory activity, LSD1-HRP coupling reaction (Amplex Red); assay type: biochemical; settings: LSD1 enzyme activity in vitro; 30 min preincubation; H3K4Me2 peptide
T2 construct: made in house; host or cells: E. coli
Excerpt: LSD1 activity was detected by using LSD1-HRP coupling reaction. […] During the reduction of H2O2 to H2O, Amplex Red acts as an electron donor and oxidizes to Resorufin for detection of fluorescence. […] Ampliflu™ Red, peroxidase, from horseradish required for the experiment was purchased from SIGMA; H3K4Me2 substrate peptide was purchased from GL Biochemical (Shanghai) Co., Ltd.

Compound	IC50 (HDAC1) [nM]	IC50 [6] [nM]	other results
N[C@@H]1C[C@H]1c1ccccc1 (racemic) [TCP, tranylcypromine, reference compound]	> 100000	–	IC50 [1]: > 10000 nM; IC50 [2]: > 10000 nM; IC50 ([3]; 72 h): > 10000 nM; IC50 [4]: > 10 µM; IC50 [5]: > 10 µM
Cc1cc(/C=C/C(=O)NO)ccc1-c1ccc(N2CCNCC2)cc1NC(=O)c1ccccc1 [ZZY-002]	71.6	1320	IC50 ([1]; Homo sapiens): 1370 nM; IC50 ([2]; Mus musculus): 31200 nM; IC50 ([3]; Homo sapiens, HCT-116, 72 h): 1290 nM; IC50 ([4]; Mus musculus): 5.61 µM; IC50 ([5]; Homo sapiens): 7.56 µM
Cc1ccc(C(=O)Nc2cc(N3CCNCC3)ccc2-c2ccc(C(=O)Nc3ccccc3N)cc2C)cc1 [ZZY-005]	8940	5160	–
Cc1cc(C(=O)Nc2ccccc2N)ccc1-c1ccc(N2CCNCC2)cc1 [ZZY-006]	5380	2380	–
O=C(/C=C/c1ccc(-c2ccc(N3CCOCC3)cc2)cc1)NO [ZZY-008]	9360	716	–
Cc1cc(/C=C/C(=O)NO)ccc1-c1ccc(-n2ccnc2)cc1 [ZZY-009]	2800	1400	–
O=C(/C=C/c1ccc(-c2ccc(-n3ccnc3)cc2)cc1)NO [ZZY-010]	3520	8260	–
O=C(/C=C/c1ccc(-c2ccc(N3CCCCC3)cc2)cc1)NO [ZZY-014]	9860	1110	–
Cc1cc(/C=C/C(=O)NO)ccc1-c1ccc(N2CCNCC2)nc1 [ZZY-015]	262	879	–
O=C(/C=C/c1ccc(-c2ccc(N3CCNCC3)nc2)cc1)NO [ZZY-016]	451	991	–

Further lines, with some results ahead:

IC50 (HDAC1) [nM]	IC50 [6] [nM]	Compound	other results
671	1550	Cc1cc(/C=C/C(=O)NO)ccc1-c1ccc(N2CCNCC2)cc1 [ZZY-001]	IC50 ([1]; Homo sapiens): 2320 nM; IC50 ([2]; Mus musculus): 2200 nM; IC50 ([3]; Homo sapiens, HCT-116, 72 h): 1540 nM; IC50 ([4]; Mus musculus): 3.87 µM; IC50 ([5]; Homo sapiens): 17.8 µM
1110	477	Cc1cc(/C=C/C(=O)NO)ccc1-c1ccc(N2CCOCC2)cc1 [ZZY-007]	–
434	131	Cc1cc(/C=C/C(=O)NO)ccc1-c1ccc(N2CCN(C)CC2)cc1 [ZZY-011]	IC50 ([1]; Homo sapiens): 2040 nM; IC50 ([2]; Mus musculus): 1050 nM; IC50 ([3]; Homo sapiens, HCT-116, 72 h): 728 nM; IC50 ([4]; Mus musculus): 2.6 µM; IC50 ([5]; Homo sapiens): 5.9 µM
942	16.1	CN1CCN(c2ccc(-c3ccc(/C=C/C(=O)NO)cc3)cc2)CC1 [ZZY-012]	IC50 ([1]; Homo sapiens): 1140 nM; IC50 ([2]; Mus musculus): 737 nM; IC50 ([3]; Homo sapiens, HCT-116, 72 h): 469 nM; IC50 ([4]; Mus musculus): 2.32 µM; IC50 ([5]; Homo sapiens): 4.21 µM
9640	1410	Cc1cc(/C=C/C(=O)NO)ccc1-c1ccc(N2CCCCC2)cc1 [ZZY-013]	–
